Two molecules from ChEMBL document CHEMBL4321797, “New Approaches to Cancer Therapy: Combining Fatty Acid Amide Hydrolase (FAAH) Inhibition with Peroxisome Proliferator-Activated Receptors (PPARs) Activation” (J Med Chem, 2019) can be followed below.

Assay [1] has as its target T1, Fatty-acid amide hydrolase 1 (Homo sapiens, UniProt O00519).
T1 sequence (O00519 whole entry): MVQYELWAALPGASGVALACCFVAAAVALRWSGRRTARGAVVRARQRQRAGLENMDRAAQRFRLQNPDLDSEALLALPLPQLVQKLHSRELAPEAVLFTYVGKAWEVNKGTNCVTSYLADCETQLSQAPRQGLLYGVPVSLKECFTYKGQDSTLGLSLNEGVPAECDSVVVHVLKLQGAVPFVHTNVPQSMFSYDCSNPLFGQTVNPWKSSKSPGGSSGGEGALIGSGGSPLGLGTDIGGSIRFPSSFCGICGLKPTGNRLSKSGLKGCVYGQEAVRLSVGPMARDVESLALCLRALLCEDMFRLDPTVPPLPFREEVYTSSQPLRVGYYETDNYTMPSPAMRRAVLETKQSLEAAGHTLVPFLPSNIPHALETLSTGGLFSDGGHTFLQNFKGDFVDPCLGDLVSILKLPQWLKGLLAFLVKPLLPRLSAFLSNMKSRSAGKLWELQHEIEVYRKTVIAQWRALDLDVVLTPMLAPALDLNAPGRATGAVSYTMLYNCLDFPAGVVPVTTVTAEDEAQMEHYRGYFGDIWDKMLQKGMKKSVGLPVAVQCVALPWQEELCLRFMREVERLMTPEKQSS
As to the kind of experiment: Inhibition of FAAH (unknown origin).

The target of assay [2] is T1, Fatty-acid amide hydrolase 1. Briefly: Inhibition of recombinant human C-terminal FLAG-tagged FAAH expressed in HEK293T cells preincubated for 4 hrs followed by addition of FP-TAMRA probe and measured after 20 mins by SDS-PAGE based fluorescence assay. Type of assay: cell-based.

On to `CCCCC/C=C\C/C=C\C/C=C\C/C=C\CCCC(=O)NCCc1c[nH]c2ccc(O)cc12`, for which half-maximal inhibition in assay [1] (IC50) required 5.6 µM. For `CN(C(=O)n1cnc(-c2ccc[n+]([O-])c2)c1)C1CCCCC1`, the IC50 in assay [2] turned out to be 0.049 µM.
